Measurements from ChEMBL document CHEMBL1201862, “PubChem BioAssay data set” (2004).
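Compound exposure: 48 hours, 5 concentrations, 96-well plates. Abbreviation: GI50, concentration required for 50% inhibition of growth.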 Activity calls are given as the source filed them. Rule as the data show it: active = GI50 up to about 1.1 µM and inactive = higher.

Assays:
Assay in all cases: growth of human tumour cells (NCI), 48 h
HCT-116 = tested on: HCT-116
SNB-19 = tested on: SNB-19
UACC-257 = tested on: UACC-257
SW-620 = tested on: SW-620
NCI-H460 = tested on: NCI-H460
MCF7 = tested on: MCF7
SN12C = tested on: SN12C
SK-MEL-5 = tested on: SK-MEL-5
T47D = tested on: T47D
SF-539 = tested on: SF-539
SR = tested on: SR
SF-295 = tested on: SF-295
NCI-H226 = tested on: NCI-H226
DU-145 = tested on: DU-145
NCI/ADR-RES = tested on: NCI/ADR-RES
Hs-578T = tested on: Hs-578T
RXF 393 = tested on: RXF 393
HL-60 = tested on: HL-60
ACHN = tested on: ACHN
BT-549 = tested on: BT-549
OVCAR-3 = tested on: OVCAR-3
SF-268 = tested on: SF-268
SK-OV-3 = tested on: SK-OV-3
U-251 = tested on: U-251
SK-MEL-28 = tested on: SK-MEL-28
NCI-H522 = tested on: NCI-H522
NCI-H23 = tested on: NCI-H23
HOP-92 = tested on: HOP-92
MDA-MB-231 = tested on: MDA-MB-231
K562 = tested on: K562
HCT-15 = tested on: HCT-15
M14 = tested on: M14
OVCAR-8 = tested on: OVCAR-8
SNB-75 = tested on: SNB-75
TK-10 = tested on: TK-10
786-0 = tested on: 786-0
A498 = tested on: A498
MOLT-4 = tested on: MOLT-4
RPMI-8226 = tested on: RPMI-8226
CAKI-1 = tested on: CAKI-1
SK-MEL-2 = tested on: SK-MEL-2
MDA-N = tested on: MDA-N
MDA-MB-435 = tested on: MDA-MB-435
Malme-3M = tested on: Malme-3M
A549 = tested on: A549
KM12 = tested on: KM12
COLO 205 = tested on: COLO 205
LOX IMVI = tested on: LOX IMVI
UO-31 = tested on: UO-31
OVCAR-5 = tested on: OVCAR-5
OVCAR-4 = tested on: OVCAR-4
IGROV-1 = tested on: IGROV-1
HT-29 = tested on: HT-29
PC-3 = tested on: PC-3
HOP-62 = tested on: HOP-62
UACC-62 = tested on: UACC-62
EKVX = tested on: EKVX
HCC 2998 = tested on: HCC 2998
CCRF-CEM = tested on: CCRF-CEM

Measured: GI50

NC(CC(=O)Nc1cc(C(F)(F)F)ccc1Cl)=NO
> 100 µM: HCT-15
inactive: HCT-116 > 100 µM | SNB-19 > 100 µM | UACC-257 > 100 µM | SW-620 > 100 µM | NCI-H460 > 100 µM | MCF7 > 100 µM | SN12C > 100 µM | SK-MEL-5 > 100 µM | T47D > 100 µM | SF-539 > 100 µM | SR > 100 µM | SF-295 > 100 µM | NCI-H226 > 100 µM | DU-145 > 100 µM | NCI/ADR-RES > 100 µM | Hs-578T > 100 µM | RXF 393 > 100 µM | HL-60 > 100 µM | ACHN > 100 µM | BT-549 > 100 µM | OVCAR-3 > 100 µM | SF-268 > 100 µM | SK-OV-3 > 100 µM | U-251 > 100 µM | SK-MEL-28 > 100 µM | NCI-H522 > 100 µM | NCI-H23 > 100 µM | HOP-92 > 100 µM | MDA-MB-231 > 100 µM | K562 > 100 µM | M14 > 100 µM | OVCAR-8 > 100 µM | SNB-75 > 100 µM | TK-10 > 100 µM | 786-0 > 100 µM | A498 > 100 µM | MOLT-4 > 100 µM | RPMI-8226 > 100 µM | CAKI-1 > 100 µM | SK-MEL-2 > 100 µM | MDA-N > 100 µM | MDA-MB-435 > 100 µM | Malme-3M > 100 µM | A549 > 100 µM | KM12 > 100 µM | COLO 205 > 100 µM | LOX IMVI > 100 µM | UO-31 > 100 µM | OVCAR-5 > 100 µM | OVCAR-4 > 100 µM | IGROV-1 > 100 µM | HT-29 > 100 µM | PC-3 > 100 µM | HOP-62 > 100 µM | UACC-62 > 100 µM | EKVX > 100 µM

CC1OC2OC3C(OCC(O)C3O)OC(=O)[C@]34CCC(C)(C)CC3C3=CCC5[C@@]6(C)C[C@H](O)[C@H](OC7OC(CO)C(O)C(O)C7OC7OCC(OC(=O)CC(C)(O)CC(=O)OC1C(OC1OC(CO)C(O)C(O)C1O)C2O)C(O)C7O)[C@@](C)(CO)C6CC[C@@]5(C)[C@]3(C)CC4 (some centres not stated)
inactive: HCC 2998 2.43 µM | HCT-116 7.11 µM | SNB-19 11.4 µM | UACC-257 3.48 µM | SW-620 9.35 µM | NCI-H460 12 µM | MCF7 12 µM | SN12C 12.2 µM | SK-MEL-5 11.6 µM | T47D 9.46 µM | SF-539 13.5 µM | SR 7 µM | SF-295 4.06 µM | NCI-H226 17.2 µM | DU-145 8.09 µM | NCI/ADR-RES 8.32 µM | Hs-578T 14.6 µM | HL-60 1.8 µM | ACHN 8.3 µM | BT-549 9.27 µM | OVCAR-3 9.77 µM | SF-268 10.8 µM | SK-OV-3 12.4 µM | U-251 8.71 µM | SK-MEL-28 1.97 µM | NCI-H522 11.6 µM | NCI-H23 4.33 µM | HOP-92 10.3 µM | MDA-MB-231 10.9 µM | M14 3.41 µM | OVCAR-8 12.3 µM | SNB-75 11.5 µM | TK-10 10.8 µM | 786-0 4.83 µM | MOLT-4 10.3 µM | RPMI-8226 10.6 µM | CAKI-1 6.41 µM | SK-MEL-2 4.18 µM | MDA-N 2.44 µM | MDA-MB-435 2.45 µM | Malme-3M 7.87 µM | A549 3.85 µM | KM12 8.53 µM | COLO 205 2.3 µM | LOX IMVI 10.6 µM | UO-31 4.47 µM | OVCAR-5 8.91 µM | OVCAR-4 6.25 µM | IGROV-1 7.53 µM | CCRF-CEM 12.3 µM | HT-29 7.78 µM | PC-3 7.91 µM | HOP-62 1.44 µM | UACC-62 9.73 µM
12 µM: HCT-15
